Results taken from article PMC6271771, “4-Amino-substituted Benzenesulfonamides as Inhibitors of Human Carbonic Anhydrases” (Molecules, 2014).
Several values for one entry are separate records, joined by “and”; a condition that tells them apart may be missing. Equal values may be shown once. Read-outs that look alike come from different tables or passages of the source.

Legend:
CA XIII [1] = molecular target: T1, CA XIII (Homo sapiens, UniProt Q8N1Q1); assay: Fluorescent thermal shift assay (FTSA), CA XIII; format: binding
T1 construct: made in house
T1 sequence (Q8N1Q1 whole entry): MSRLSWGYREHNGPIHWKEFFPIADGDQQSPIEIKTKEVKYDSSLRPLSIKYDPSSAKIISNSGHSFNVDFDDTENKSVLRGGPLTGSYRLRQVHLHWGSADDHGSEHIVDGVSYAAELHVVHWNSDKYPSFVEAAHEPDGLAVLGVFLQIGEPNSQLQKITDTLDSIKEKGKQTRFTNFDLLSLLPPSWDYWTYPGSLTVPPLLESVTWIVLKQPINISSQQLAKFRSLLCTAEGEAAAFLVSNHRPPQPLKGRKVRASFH

CA VI [2] = molecular target: T2, CA VI (Homo sapiens, UniProt P23280); set-up: method as in Murakami and Sly 35; conditions: read-out: Ki for CA VI; ref Murakami and Sly 35; cited from earlier work
T2 construct: made in house
T2 sequence (P23280 18-308): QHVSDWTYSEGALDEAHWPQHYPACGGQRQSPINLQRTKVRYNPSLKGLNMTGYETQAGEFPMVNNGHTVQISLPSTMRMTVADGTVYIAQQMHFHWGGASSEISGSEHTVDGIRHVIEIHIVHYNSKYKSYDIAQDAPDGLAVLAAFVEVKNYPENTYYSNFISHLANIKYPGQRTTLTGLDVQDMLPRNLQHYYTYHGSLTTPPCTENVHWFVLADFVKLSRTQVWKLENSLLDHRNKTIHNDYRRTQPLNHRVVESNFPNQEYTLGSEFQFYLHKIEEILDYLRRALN

CA VII [3] = molecular target: T3, CA VII (Homo sapiens, UniProt P43166); assay: Fluorescent thermal shift assay (FTSA), CA VII; format: binding
T3 construct: made in house
T3 sequence (P43166 whole entry): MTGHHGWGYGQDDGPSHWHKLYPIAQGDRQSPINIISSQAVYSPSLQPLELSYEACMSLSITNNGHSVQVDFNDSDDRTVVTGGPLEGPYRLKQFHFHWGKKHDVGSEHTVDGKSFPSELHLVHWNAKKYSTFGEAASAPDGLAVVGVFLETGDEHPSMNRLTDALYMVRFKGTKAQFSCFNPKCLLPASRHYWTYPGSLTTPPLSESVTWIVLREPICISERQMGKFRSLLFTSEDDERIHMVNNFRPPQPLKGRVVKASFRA

CA VI [4] = molecular target: T2, CA VI; set-up: method as in PMID 24300919, PMID 17228881; conditions: read-out: inhibition constant Ki for CA VI; previously reported; cited from earlier work
CA VI [5] = molecular target: T2, CA VI; assay: Fluorescent thermal shift assay (FTSA), CA VI; format: binding
CA I [6] = molecular target: T4, CA I (Homo sapiens, UniProt P00915); assay: Fluorescent thermal shift assay (FTSA), CA I; format: binding
T4 construct: made in house
T4 sequence (P00915 whole entry): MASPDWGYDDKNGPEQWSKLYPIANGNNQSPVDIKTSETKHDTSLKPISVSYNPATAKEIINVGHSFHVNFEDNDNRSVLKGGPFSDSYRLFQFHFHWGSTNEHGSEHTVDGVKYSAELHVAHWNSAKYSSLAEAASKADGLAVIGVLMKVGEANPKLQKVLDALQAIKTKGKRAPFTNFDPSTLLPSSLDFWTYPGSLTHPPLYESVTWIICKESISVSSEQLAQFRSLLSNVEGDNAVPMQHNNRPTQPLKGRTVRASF

CA XII [7] = molecular target: T5, CA XII (Homo sapiens, UniProt O43570); assay: Fluorescent thermal shift assay (FTSA), CA XII; format: binding
T5 construct: made in house
T5 sequence (O43570 30-289 limits assumed): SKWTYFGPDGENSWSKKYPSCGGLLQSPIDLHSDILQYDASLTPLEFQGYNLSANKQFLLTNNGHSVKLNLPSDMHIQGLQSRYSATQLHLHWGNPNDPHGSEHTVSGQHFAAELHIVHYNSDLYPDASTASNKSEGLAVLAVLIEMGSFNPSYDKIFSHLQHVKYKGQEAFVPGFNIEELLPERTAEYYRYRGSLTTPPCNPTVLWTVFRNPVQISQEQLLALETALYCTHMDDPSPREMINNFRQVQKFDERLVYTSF

CA II [8] = molecular target: T6, CA II (Homo sapiens, UniProt P00918); assay: Fluorescent thermal shift assay (FTSA), CA II; format: binding; conditions: pH 7.0, 37 °C
T6 construct: made in house

CA VII [9] = molecular target: T3, CA VII; assay: Isothermal titration calorimetry (ITC), CA VII; format: binding
Experimental: (§1) The synthesized compounds could be arranged into two groups. The first group of compounds is the N-aryl-β-alanine derivatives containing the primary sulfonamide group 3–25 (except in the compound 4 which is a tertiary sulfonamide) and the second group of compounds—diazobenzenesulfonamides 26–33. Compounds such as benzenesulfonamide (BSA) and acetazolamide (AZM) were used as controls. The binding affinity of these compounds to six CA isoforms I, II, VI, VII, XII, and XIII was determined by the fluorescent thermal shift assay (FTSA) and confirmed for two key compounds 18 and 31 by the isothermal titration calorimetry (ITC).
(§2) Isothermal titration calorimetry (ITC) experiments were performed using VP-ITC instrument (Microcal, Inc., Northampton, MA, USA) with 5–10 µM protein solution in the cell and 50–100 µM of the ligand solution in the syringe. A typical experiment consisted of 25 injections (10 µL each) within 3 min intervals. Experiments were performed at 37 °C in a 50 mM sodium phosphate buffer containing 100 mM NaCl at pH 7.0, with a final DMSO concentration of 2%, equal in the syringe and the cell.

CA I [10] = molecular target: T4, CA I; assay: Isothermal titration calorimetry (ITC), CA I; format: binding
Experimental: as §1, §2

CA II [11] = molecular target: T6, CA II; assay: Isothermal titration calorimetry (ITC), CA II; format: binding; conditions: for K (ITC titration of CA II) / ΔH (ITC titration of CA II): 37 °C, 50 mM phosphate buffer (pH 7.0), 100 mM NaCl, 2% DMSO, Figure 2
Experimental: as §1, §2

CA XIII [12] = molecular target: T1, CA XIII; assay: Isothermal titration calorimetry (ITC), CA XIII; format: binding
Experimental: as §1, §2

CA XII [13] = molecular target: T5, CA XII; assay: Isothermal titration calorimetry (ITC), CA XII; format: binding; conditions: pH 7.0, 37 °C, read-out: Kd for CA XII by isothermal titration calorimetry (values in the brackets)
Experimental: as §1, §2

[14] = FTSA, pH 7.0, 37 °C, read-out: Compound Dissociation Constants Kd for CA XIII
[15] = FTSA, pH 7.0, 37 °C, read-out: Compound Dissociation Constants Kd for CA VII
[16] = FTSA, pH 7.0, 37 °C, read-out: Compound Dissociation Constants Kd for CA XII
[17] = FTSA, pH 7.0, 37 °C, read-out: Compound Dissociation Constants Kd for CA VI
[18] = read-out: Compound Dissociation Constants Kd for CA II
[19] = FTSA, pH 7.0, 37 °C, read-out: Compound Dissociation Constants Kd for CA I

| SMILES | Kd (CA XIII [1]; [14]) [µM] | melting point [°C] | Kd (CA VII [3]; [15]) [µM] | Kd (CA XII [7]; [16]) [µM] | Kd (CA VI [5]; [17]) [µM] | Kd (CA II [8]; [18]) | Kd (CA I [6]; [19]) [µM] | other results |
| --- | --- | --- | --- | --- | --- | --- | --- | --- |
| Nc1ccc(S(N)(=O)=O)cc1 [Compound 1, 4-Aminobenzene-1-sulfonamide, reference compound] | 100 |  |  |  |  |  |  | Ki (CA VI [2]): 9.9 µM; Kd (CA VII [3]): 50 µM; Ki (CA VI [4]): 0.9 µM; Kd (CA VI [5]): 56 µM; difference between own Kd and Ki of Murakami and Sly, CA I (CA I [6]; Kd (FTSA) versus Ki of ref 35): 2 times |
| CN(C)c1ccc(/C=N/NC(=O)CCNc2ccc(S(N)(=O)=O)cc2)cc1 [Compound 16] | 55.6 | 179 to 180.5 | 25 | 33.3 | 50 | 8.33 µM | 37 |  |
| NS(=O)(=O)c1ccc(NCCC(=O)NN=Cc2ccc([N+](=O)[O-])cc2)cc1 [Compound 17, 4-[(2-{N′-[(4-Nitrophenyl)methylidene]hydrazinecarbonyl]ethyl)amino]benzene-1-sulfonamide] | 50 | 227 to 228.5 | 25 | 67 | 25 | 3.6 µM | 20 |  |
| NS(=O)(=O)c1ccc(NCCc2n[nH]c(=S)n2-c2ccccc2)cc1 [Compound 23, 4-{[2-(4-Phenyl-5-sulfanylidene-4,5-dihydro-1H-1,2,4-triazol-3-yl)ethyl]amino}benzene-1-sulfonamide] | 10 | 253 to 254 | 6.67 | 6.67 | 11.1 | 2 µM | 10 |  |
| NS(=O)(=O)c1ccc(/N=N/N2CCCCCC2)cc1 [Compound 31] |  |  |  |  |  |  |  | Kd (CA XII [13]): 0.22 µM; Kd (CA XIII [1]): 0.0222 µM; Kd (CA VII [9]): 0.192 µM; Kd (CA VII [3]): 0.125 µM; Kd (CA I [10]): 0.022 µM; Kd (CA II [11]): 0.04 µM; K (ITC titration of CA II) (CA II [11]): 2.5E7; ΔH (ITC titration of CA II) (CA II [11]): -9640; Kd (CA XII [7]): 0.67 µM; Kd (CA VI [5]): 14.3 µM; Kd (CA II [8]; Compound Dissociation Constants Kd for CA II): 0.0435 µM; Kd (CA I [6]): 0.006 µM; Kd (CA XIII [12]): 0.078 µM |

More lines, in order of falling Kd (CA XIII [1]; [14]), values ahead:

| Kd (CA XIII [1]; [14]) [µM] | melting point [°C] | Kd (CA VII [3]; [15]) [µM] | Kd (CA XII [7]; [16]) [µM] | Kd (CA VI [5]; [17]) [µM] | Kd (CA II [8]; [18]) | Kd (CA I [6]; [19]) [µM] | SMILES | other results |
| --- | --- | --- | --- | --- | --- | --- | --- | --- |
| 8.33 | 226 to 227 | 12.5 | 33.3 | 6.7 | 2 µM | 12.5 | NS(=O)(=O)c1ccc(NCCC(=O)NN=Cc2ccc(Cl)cc2)cc1 [Compound 15, 4-[(2-{N'-[(4-Chlorophenyl)methylidene]hydrazinecarbonyl}ethyl]amino)benzene-1-sulfonamide] |  |
| 7.14 | 218 to 219 | 5.88 | 31.3 | 7.1 | 1.82 µM | 12.5 | NS(=O)(=O)c1ccc(NCCC(=O)N/N=C/c2ccc(Br)cc2)cc1 [Compound 14, 4-[(2-{N'-[(4-Bromphenyl)methylidene]hydrazinecarbonyl}ethyl)amino]benzene-1-sulfonamide] |  |
| 4 |  | 3.33 | 14.3 | 27 | 0.67 µM and 0.667 µM | 1.67 | Cc1cc(C)n(C(=O)CCNc2ccc(S(N)(=O)=O)cc2)n1 [Compound 18, 4-{[3-(3,5-Dimethyl-1H-pyrazol-1-yl)-3-oxopropyl]amino}benzene-1-sulfonamide] | Kd (CA VII [9]; ITC, pH 7.0, 37 °C, read-out: Kd for CA VII by isothermal titration calorimetry (values in the brackets)): 0.9 µM; Kd (CA I [10]; ITC, pH 7.0, 37 °C, read-out: Kd for CA I by isothermal titration calorimetry (values in the brackets)): 0.75 µM; K (ITC titration of CA II) (CA II [11]): 2.2E6; ΔH (ITC titration of CA II) (CA II [11]): -9320; Kd (CA II [11]; ITC, pH 7.0, 37 °C, read-out: Kd for CA II by isothermal titration calorimetry (values in the brackets)): 0.454 µM; Kd (CA XIII [12]; ITC, pH 7.0, 37 °C, read-out: Kd for CA XIII by isothermal titration calorimetry (values in the brackets)): 1 µM |
